Laboratory results reported in patent US8877801B2, “Compounds and compositions as selective estrogen receptor degraders” (Novartis AG, priority 2013, dated 2014).
pIC50: −log10 of the molar value. Where two headings read alike, the source gives them in different places.

Experiments:
ER = molecular target: T1, ER (Homo sapiens, UniProt P03372); assay: ER transcription assay (MCF7 cells), ERE-luciferase reporter; format: cell-based
T1 construct: transfected in MCF7 cells (containing endogenous ER); endogenous in cells; host or cells: MCF7 cells
T1 sequence (P03372 1-595): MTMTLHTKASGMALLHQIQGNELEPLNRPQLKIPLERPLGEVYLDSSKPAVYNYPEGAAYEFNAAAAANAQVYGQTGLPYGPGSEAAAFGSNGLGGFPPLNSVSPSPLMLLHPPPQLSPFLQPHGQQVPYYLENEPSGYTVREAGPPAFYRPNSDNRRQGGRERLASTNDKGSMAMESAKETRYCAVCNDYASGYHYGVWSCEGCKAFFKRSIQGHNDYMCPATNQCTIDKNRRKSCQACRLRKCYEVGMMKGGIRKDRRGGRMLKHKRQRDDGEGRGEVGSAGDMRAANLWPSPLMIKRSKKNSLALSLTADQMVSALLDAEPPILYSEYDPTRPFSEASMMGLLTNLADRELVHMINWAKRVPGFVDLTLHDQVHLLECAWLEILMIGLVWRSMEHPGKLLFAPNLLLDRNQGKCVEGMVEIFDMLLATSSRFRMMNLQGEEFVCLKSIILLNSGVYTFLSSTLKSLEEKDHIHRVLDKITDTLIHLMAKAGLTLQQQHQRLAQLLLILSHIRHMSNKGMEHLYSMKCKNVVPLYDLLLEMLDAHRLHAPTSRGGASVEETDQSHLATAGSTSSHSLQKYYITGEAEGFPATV
Excerpt: ER Transcription Assay (MCF7 Cells)
The ER transcription assay is a reporter assay that is based on the ability of ER to induce transcription from a luciferase reporter gene containing estrogen response elements (EREs) in the promoter/enhancer region. When the reporter gene is transfected in MCF7 cells (containing endogenous ER), transcription is reflected by the level of luciferase expression.
A day before transfection, cells are split into a T75 flask at a cell density of 300,000 cells/mL (10 mL total) and allowed to attach overnight in a humidified CO2 incubator at 37° C.
Approximately 20 ug DNA is mixed in OptiMEM (Invitrogen) to a total volume of 650 μL. Following incubation, the OptiMEM-DNA mixture is added to the OptiMEM-Lipofectin mix and incubated for 15 minutes at 37° C. The DNA-Lipofectin mixture is then added directly to the T75 flask and the flask is returned to the incubator.
After overnight incubation, compound is added to individual wells of a 96-well plate in a 10 μL volume of media at 10× concentration along with 17β estradiol whose final concentration is 0.1 nM. Normally, DMSO (used as a vehicle) is included to achieve a final concentration of 0.1% when added to the cells. Transfected cells are trypsinized, resuspended in DMEM/F12/10% charcoal-stripped serum and added to the 96-well plate at 25,000 cells/well in 90 μL of media. The plate is then returned to the incubator for 24 hours.
After incubation with compounds for 24 hours, Firefly and Renilla luciferase activities are measured to determine ER transcriptional activity. Media is removed from 96-well plates by decanting and blotting on paper towels.
One second total read time after a one second delay.
One second total read time after one second delay. If Firefly luciferase signal is high, Renilla assay must be done an hour after the Firefly assay due to incomplete squelching of Firefly signal.
(§1) The data describing the antagonist and degradation properties for the examples is compiled in table 10. The column titled MCF7 IC50 reports the inflection point of the inhibition of transcription in MCF7 cells as described above. Percentage ERα remaining reports the remaining ERα protein measured at 10 μM concentration of the ligand as described above. The column ERα IC50 reports the inflection point of the degradation in response to the ligand concentration.

ERα = molecular target: T2, ERα (Homo sapiens, UniProt P03372); assay: ERα degradation (MCF7 cells), in-cell Western; format: cell-based; conditions: for % ERα remaining: 10 μM concentration of the ligand, MCF7 cells, 18-24 hours, relative to DMSO control
T2 construct: transfected in MCF7 cells (containing endogenous ER); endogenous in cells; host or cells: MCF7 cells
T2 sequence (P03372 1-595): T1 sequence (P03372 1-595)
Method: ERα Degradation (MCF7 Cells)
as §1

[1] = MCF7 cells, ER reporter gene, 0.1 nM 17β estradiol, 24 hours, read-out: MCF7 IC50 (inflection point of the inhibition of transcription in MCF7 cells)
[2] = comparison of bond order between the phenyl and -C(O)OH, read-out: SERD IC50 MCF7 μM (antagonist activity)
[3] = comparison of groups at the X position, read-out: IC50 MCF7 μM (antagonist activity)
[4] = comparison of bond order between the phenyl and -C(O)OH
[5] = comparison of groups at the X position

Row | SMILES | pIC50 (ER; [1]) | % ERα remaining (ERα) | further results
1 | O=C(O)/C=C/c1ccc(Oc2c(-c3ccc(O)cc3)sc3cc(O)ccc23)cc1 [Example 2, (E)-3-(4-((6-hydroxy-2-(4-hydroxyphenyl)benzo[b]thiophen-3-yl)oxy)phenyl)acrylic acid] | 6.13 |  | pIC50 (ER; [2]): 6.13; pIC50 (ER; [3]): 6.13; ER Percentage remaining (degradation potential) (ERα; [4]): 41%; ER Percentage remaining (degradation potential) (ERα; [5]): 41%
2 | COc1cc(Oc2c(-c3ccc(O)cc3)sc3cc(O)ccc23)ccc1/C=C/C(=O)O [Example 58, (E)-3-(4-((6-hydroxy-2-(4-hydroxyphenyl)-benzo[b]thiophen-3-yl)oxy)-2-methoxyphenyl)acrylic acid] | 5.30 | 35% | 
3 | CNC(=O)/C=C/c1ccc(Oc2c(-c3ccc(O)cc3)sc3cc(O)ccc23)cc1 [Example 66, (E)-3-(4-((6-hydroxy-2-(4-hydroxyphenyl)benzo-[b]thiophen-3-yl)oxy)phenyl)-N-methylacrylamide] | 7.28 |  | 
4 | CNC(=O)/C=C/c1ccc(Oc2c(-c3ccc(F)cc3)sc3cc(O)ccc23)cc1 [Example 67, (E)-3-(4-((2-(4-fluorophenyl)-6-hydroxybenzo[b]thiophen-3-yl)oxy)phenyl)-N-methylacrylamide] | 6.43 |  | 
5 | CNC(=O)/C=C/c1ccc(Oc2c(-c3ccc(O)c(F)c3)sc3cc(O)ccc23)cc1 [Example 69, (E)-3-(4-((2-(3-fluoro-4-hydroxyphenyl)-6-hydroxybenzo[b]thiophen-3-yl)oxy)phenyl)-N-methylacrylamide] | 7.39 | 32% | 
6 | CNC(=O)/C=C/c1ccc(Oc2c(-c3ccc(C(F)(F)F)cc3)sc3cc(O)ccc23)cc1 [Example 70, (E)-3-(4-((6-hydroxy-2-(4-(trifluoromethyl)phenyl)benzo[b]thiophen-3-yl)oxy)phenyl)-N-methylacrylamide] | 6.57 | 41% | 
7 | CNC(=O)/C=C/c1ccc(Oc2c(-c3ccc(O)cc3)sc3cc(O)ccc23)cn1 [Example 71, (E)-3-(5-((6-hydroxy-2-(4-hydroxyphenyl)benzo[b]thiophen-3-yl)oxy)pyridin-2-yl)-N-methylacrylamide] | 7.28 | 39% | 
8 | Oc1ccc(-c2sc3cc(O)ccc3c2Oc2ccc(/C=C/c3c[nH]cn3)cc2)cc1 [Example 72, (E)-3-(4-(2-(1H-imidazol-4-yl)vinyl)phenoxy)-2-(4-hydroxyphenyl)benzo[b]thiophen-6-ol] | 6.90 | 47% | 
9 | Cn1cnc(/C=C/c2ccc(Oc3c(-c4ccc(O)cc4)sc4cc(O)ccc34)cc2)c1 [Example 73, (E)-2-(4-hydroxyphenyl)-3-(4-(2-(1-methyl-1H-imidazol-4-yl)vinyl)phenoxy)-benzo[b]thiophen-6-ol] | 7.24 | 32% | 
10 | CCCn1cnc(/C=C/c2ccc(Oc3c(-c4ccc(O)cc4)sc4cc(O)ccc34)cc2)c1 [Example 74, (E)-2-(4-hydroxyphenyl)-3-(4-(2-(1-propyl-1H-imidazol-4-yl)vinyl)phenoxy)benzo [b]thiophen-6-ol] | 6.97 | 41% | 
11 | CCCn1cncc1/C=C/c1ccc(Oc2c(-c3ccc(O)cc3)sc3cc(O)ccc23)cc1 [Example 75, (E)-2-(4-hydroxyphenyl)-3-(4-(2-(1-propyl-1H-imidazol-5-yl)vinyl)phenoxy)benzo[b] thiophen-6-ol] | 8.00 | 42% | 
12 | Cc1cc(F)ccc1-c1sc2cc(O)ccc2c1Oc1ccc(/C=C/c2nnc(C3CC3)o2)cc1 [Example 76, (E)-3-(4-(2-(5-cyclopropyl-1,3,4-oxadiazol-2-yl)vinyl)phenoxy)-2-(4-fluoro-2-methylphenyl)benzo[b]-thiophen-6-ol] | 7.80 | 36% | 
13 | CN(C)Cc1ccccc1-c1sc2cc(O)ccc2c1Oc1ccc(/C=C/C(=O)O)cc1 [Example 77, (E)-3-(4-((2-(2-((dimethylamino)methyl)phenyl)-6-hydroxybenzo[b]thiophen-3-yl)oxy)phenyl)acrylic acid] | 7.40 |  | 
14 | O=C(O)/C=C/c1ccc(-c2c(-c3ccc(O)cc3)sc3cc(O)ccc23)cc1 [reference compound] |  |  | pIC50 (ER; [3]): < 5.00; ER Percentage remaining (degradation potential) (ERα; [5]): 76%
15 | O=C(O)/C=C/c1ccc(C(=O)c2c(-c3ccc(O)cc3)sc3cc(O)ccc23)cc1 [reference compound] |  |  | pIC50 (ER; [3]): < 5.00; ER Percentage remaining (degradation potential) (ERα; [5]): 60%
16 | O=C(O)c1ccc(Oc2c(-c3ccc(O)cc3)sc3cc(O)ccc23)cc1 [reference compound] |  |  | pIC50 (ER; [2]): ≤ 5.00; ER Percentage remaining (degradation potential) (ERα; [4]): 57%
17 | O=C(O)CCCc1ccc(Oc2c(-c3ccc(O)cc3)sc3cc(O)ccc23)cc1 [reference compound] |  |  | pIC50 (ER; [2]): ≤ 5.00; ER Percentage remaining (degradation potential) (ERα; [4]): 55%
